In patent US20040213889A1, “Method for active dry yeast rehydration and rehydration medium” (priority 2001, published 2004):

Assays:
Format in all cases: cell-based, Saccharomyces
[1] = tested on: active dry yeast Uvaferm CEG; assay: Industrial fermentation of Airen white wine must in 100 hectolitre vats (Example 7)
Description: (§1) The medium M2 containing the composition C2 has been used to rehydrate the ADYs and culture a fermentation must of a white wine in industrial conditions in a cellar in the region of la Mancha in Spain.
(§2) Assimilable Nitrogen in the must: 225 mg/l (non-Deficient must)
(§3) Fermentations have been carried out in 100 hectolitre vats according to different forms, in order to determine the most favourable conditions. Two types of ADY have been used, on their own or in the presence of other substances jointly added to the musts to encourage fermentation. In particular the influence of diammonium phosphate and a fermentation activator, added to the fermentation medium, has been studied.
(§4) The active dry yeasts Uvaferm™ CEG (Lallemand, Canada) and Uvaferm™ PM (Lallemand, Canada) have been rehydrated with the aid of the medium M2 described in example 6. For each of the two yeasts, 4 tests have been carried out, by adding:
(§5) The fermentation activator used is the activator Fermaid™ (Lallemand, Canada).
(§6) The kinetic profile of these eight fermentations was followed by measuring the density of the must and at the level of the production of a secondary component of fermentation, i.e. acetate. Indeed, acetate is responsible for the volatile acidity of wines which should be minimised in order to obtain good gustative qualities.
(§7) The values presented in table 2 correspond to fermentation times in days for each form.
(§8) The values presented in table 3 correspond to the volatile acidity measured at the end of fermentation by the Duclaux-Gayon method, known to the person skilled in the art.

[2] = tested on: active dry yeast Uvaferm PM; assay: as above
Description: as §1, §2, §3, §4, §5, §6, §7, §8

[3] = tested on: active dry yeast Uvaferm CEG; assay: Duration of fermentation of deficient synthetic must MS70-fa with different added nutrients (Example 3); conditions: average of duplicates, control without addition 290
Description: 12 fermentations were carried out in parallel and in duplicate on a synthetic must MS70-fa such as described in example 1, and corresponding to a medium deficient in assimilable nitrogen (100 mg/l) and containing 200 g/l of fermentable sugars. The active dry yeast used is the commercial yeast Uvaferm CEG™ inoculated at a dosage of 20 g/hl. The yeast extract is the commercial extract Bacto-yeast extract ref. 0127-01-7 (DIFCO, USA). The vitamins and mineral salts are the standard products available from suppliers.
F1 and 2: Controls in which no yeast extract is added either into the rehydration medium of the yeast or into the fermentation medium. The control rehydration medium is the base medium: water with glucose added at 50 g/l.
F3: Fermentation carried out with the yeast CEG™ rehydrated in the presence of yeast extract (used at a dosage permitting a concentration of 30 g/hl in the must) in the rehydration medium.
F4: Fermentation carried out with the yeast CEG™ rehydrated in a control rehydration medium. The same yeast extract as for F3 is added at the start of alcoholic fermentation directly into the synthetic must MS70-fa in a dosage of 30 g/hl.
F6: Fermentation carried out with the yeast CEG™ rehydrated in a control rehydration medium. […]

[4] = Airen must, 225 mg/l assimilable nitrogen
[5] = at end of fermentation, Duclaux-Gayon method

Compound	fermentation time [1, 4]	Volatile acidity [1, 5]	fermentation time [2, 4]	Volatile acidity [2, 5]	fermentation time, in rehydration medium ([3]; product added in rehydration medium)	fermentation time, at start of fermentation ([3]; product added to must at start of fermentation)
N.N.O=P(O)(O)O [Test no. 1]	10 days	0.48 g/L	8 days	0.33 g/L		
N.N.O=P(O)(O)O [Di-ammonia phosphate]					280 h	285 h
